From paper PMC4520450, “Procyanidins Negatively Affect the Activity of the Phosphatases of Regenerating Liver” (PLoS ONE, 2015)

Tests used:
[1] = biological target: T1, PRL-3 (Homo sapiens, UniProt O75365); experiment: DiFMUP phosphatase activity assay for PRLs; format: biochemical; conditions: for IC50: 50 nM PRL-3, 30 min preincubation, 25°C, 21 μM DiFMUP, mean ± SEM (n = 3–5), read-out: IC50 (Ki) PRL-3
T1 construct: His-TEV (cleaved yes); made in house
Protocol: Biochemical phosphatase activity measurements were carried out in the presence of different concentrations of various polyphenols, compounds 1–11 (Fig 1), using recombinant PRL-3 and 6,8-difluoro-4-methylumbelliferyl phosphate (DiFMUP) as a fluorogenic substrate (see the experimental procedures). We observed that the monomeric epicatechins EGC and EC inhibit PRL-3 only weakly, with a slightly better activity of EGC, which bears three hydroxyl groups at the B-ring. […] In general, as a basic structure activity-relationship the following trend was observed: a higher number of hydroxyl groups at the B-ring increased the activity slightly. […] The influence of the stereochemistry at C(2)–C(3) was studied by using GCG (the trans-epimer of EGCG).
(§1) Fig 2 Effect of polyphenolic compounds 8 (A), 9 (B), 10 (C) and 11 (D) on the phosphatase activity of PRL-1, PRL-2, PRL-3, PP1, and PP2A. Proteins were incubated for 30 min with 0–1000 μM of the corresponding procyandin 8–11. Phosphatase activity was measured in the presence of DiFMUP at 25°C using the concentration corresponding to the KM of each protein. The KM for PRLs was determined separately (PRL-3 = 21 μM, PRL-2 and PRL-1 = 24 μM). The KM for PP1 (91 μM) and for PP2A (100 μM) was taken from the literature. Protein concentrations are 50 nM for all PRLs and 2 mU for PP1 and 0.05 U for PP2A (see the Experimental Procedures). Phosphatase activity in the absence of inhibitors was set as 100%. Data represent means ± standard errors of the mean (n = 3–5).
(§2) DiFMUP assay for PRLs: In a final reaction volume of 100 μL the PRLs (50 nM final concentration) were incubated with decreasing concentrations of the inhibitory polyphenols for 30 minutes at 25°C. The buffer conditions were 108 mM TrisCl (pH 7.5), Triton 0.05% (v/v), DTT 27.0 mM, NaCl 811 mM. After the incubation time 20 μL DiFMUP (6,8-Difluoro-4-methylumbelliferyl phosphate) was added to reach a final concentration of 21 μM for PRL-3 and 24 μM for PRL-1 and PRL-2. On a Tecan safire2 (Tecan, Salzburg, Austria) plate reader dephosphorylation of the substrate to its fluorescent product was monitored by following the emission at 358 nm with excitation at 452 nm for 20 minutes. All measurements were done in triplicates, and the experiments were repeated at least three times. The slopes of the initial phases were obtained by linear regression of the data points. The normalized reaction rates were plotted versus the log of the inhibitor concentrations and the IC50 values were obtained by fitting the curves using the one site competition model of GraphPad Prism (GraphPad Software, Version 5). KM values were determined by measuring reaction kinetics of substrate dilution series. Initial velocities were plotted against DiFMUP concentration and the data was analyzed by Michaelis-Menten kinetics curve fitting of GraphPad Prism. A final DMSO content of 0.4% was maintained for the monomeric catechins. Due to the high water solubility of the procyanidins DMSO was not required and measurements were done in assay buffer only.

[2] = biological target: protein phosphatase-1; set-up: method as in PMID 22260360; conditions: cited from earlier work
[3] = tested on: PP2A; set-up: method as in PMID 22260360; conditions: cited from earlier work
[4] = biological target: T2, PRL-2 (Homo sapiens, UniProt Q12974); experiment: DiFMUP phosphatase activity assay for PRLs; format: biochemical; conditions: 50 nM PRL-2, 30 min preincubation, 25°C, 24 μM DiFMUP; mean ± SEM (n = 3–5); read-out: IC50 (Ki) PRL-2
T2 construct: His-TEV (cleaved yes); made in house
T2 sequence (Q12974 1-167): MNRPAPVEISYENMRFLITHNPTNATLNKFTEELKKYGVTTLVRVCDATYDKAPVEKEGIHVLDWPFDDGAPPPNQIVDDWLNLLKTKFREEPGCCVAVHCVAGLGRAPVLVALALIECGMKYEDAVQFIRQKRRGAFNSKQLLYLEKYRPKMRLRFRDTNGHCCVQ
Protocol: as §1, §2

[5] = biological target: T3, PP1 (Oryctolagus cuniculus, UniProt P62139); experiment: DiFMUP assay for PP1; format: biochemical; conditions: for IC50: 2 mU PP1c, 30 min preincubation, 25°C, DiFMUP, no BSA, mean ± SEM (n = 3–5), read-out: IC50 (Ki) PP1
T3 construct: purchased NewEngland Biolabs; host or cells: E. coli
T3 sequence (P62139 whole entry): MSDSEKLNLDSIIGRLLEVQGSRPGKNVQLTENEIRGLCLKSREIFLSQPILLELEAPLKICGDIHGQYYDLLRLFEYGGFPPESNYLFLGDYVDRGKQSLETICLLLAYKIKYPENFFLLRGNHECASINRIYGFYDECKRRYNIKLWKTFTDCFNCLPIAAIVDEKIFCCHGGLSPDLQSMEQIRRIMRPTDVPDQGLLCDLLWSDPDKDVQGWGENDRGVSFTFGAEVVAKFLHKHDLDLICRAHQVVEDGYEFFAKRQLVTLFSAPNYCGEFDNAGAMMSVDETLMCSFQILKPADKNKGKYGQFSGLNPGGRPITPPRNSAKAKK
Protocol: as §1
(§3) BSA, which is usually supplemented to the assay buffer for stabilizing the PPs was however excluded, as BSA is known to form complexes with polyphenolic compounds [40–42] and thus would decrease the concentrations of the inhibitor in the assay. […] In contrast, the phosphatase activity of PP2A was suppressed to a much lesser extent with weak (for trimer 9 and hexamer 11) and strong statistical significance (dimer 8 and tetramer 10). Thus our results corroborate the data reported previously.
DiFMUP assay for PP1: In a final reaction volume of 100 μL PP1c (2 mU final concentration, according to manufacturer’s instructions) were incubated with decreasing concentrations of the inhibitory polyphenols for 30 minutes at 25°C. The assay buffer contained 25 mM imidazole (pH 7.4), 1 mM dithiothreitol (DTT), and 50 mM NaCl. Bovine serum albumin (BSA) was excluded due to possible binding of the polyphenolic compounds. After the incubation time 20 μL DiFMUP (6,8-Difluoro-4-methylumbelliferyl phosphate) was added to reach a final concentration of 100 μM. Monitoring of the fluorescent dephosphorylation product was monitored and data analyzed as described above.

[6] = biological target: T4, PP2A (Homo sapiens, UniProt P67775); experiment: DiFMUP assay for PP2A; format: biochemical; conditions: 0.05 U PP2A, 30 min preincubation, 25°C, no BSA, mean ± SEM (n = 3–5), read-out: IC50 (Ki) PP2A
T4 construct: purified from human red blood cells; purchased Merck Millipore; host or cells: human red blood cells
T4 sequence (P67775 whole entry): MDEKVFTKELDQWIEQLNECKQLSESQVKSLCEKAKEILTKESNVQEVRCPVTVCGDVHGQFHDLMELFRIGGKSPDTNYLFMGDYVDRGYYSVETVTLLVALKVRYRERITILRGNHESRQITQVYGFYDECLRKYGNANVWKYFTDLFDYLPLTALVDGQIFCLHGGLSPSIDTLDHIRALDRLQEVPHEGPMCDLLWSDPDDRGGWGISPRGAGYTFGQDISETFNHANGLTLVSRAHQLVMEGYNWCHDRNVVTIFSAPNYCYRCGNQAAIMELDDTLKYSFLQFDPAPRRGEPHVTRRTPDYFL
T4 sequence (P30153 2-589 partner limits assumed): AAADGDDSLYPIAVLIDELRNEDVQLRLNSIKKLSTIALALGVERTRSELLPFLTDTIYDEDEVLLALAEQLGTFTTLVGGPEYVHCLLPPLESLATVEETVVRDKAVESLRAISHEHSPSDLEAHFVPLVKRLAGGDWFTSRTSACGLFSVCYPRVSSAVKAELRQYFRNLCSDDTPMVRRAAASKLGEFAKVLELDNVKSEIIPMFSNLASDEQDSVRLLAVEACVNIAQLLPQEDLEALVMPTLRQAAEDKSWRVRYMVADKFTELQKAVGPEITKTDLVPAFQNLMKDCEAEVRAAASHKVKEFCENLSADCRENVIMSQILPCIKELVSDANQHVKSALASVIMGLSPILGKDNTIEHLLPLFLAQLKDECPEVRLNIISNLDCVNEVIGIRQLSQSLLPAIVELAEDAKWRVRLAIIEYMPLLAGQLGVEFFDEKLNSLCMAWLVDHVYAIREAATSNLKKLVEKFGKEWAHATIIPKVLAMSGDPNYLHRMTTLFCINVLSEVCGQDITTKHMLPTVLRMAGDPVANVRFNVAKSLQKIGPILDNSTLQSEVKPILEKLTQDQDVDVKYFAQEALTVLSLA
Protocol: as §1, §3
Chemicals and vendors were as follows: Synthesis of Procyanidins (dimer to dodecamer) was done as previously reported. EGCG, EGC, ECG and EC were synthesized as previously reported or purchased from Sigma. (+)-Catechin and 3-(4,5-dimethylthiazol-2-yl)-2,5-diphenyltetrazolium bromide (MTT) were obtained from Sigma. 6,8-Difluoro-4-Methylumbelliferyl Phosphate (DiFMUP), propidium iodide and calcein AM were from lifescience technologies. Cell dissociation solution (10X) was purchased from amsbio. PP1c (recombinant from E. coli) was purchased from NewEngland Biolabs and PP2A (purified from human red blood cells, contains different subunits according to manufacturer) from Merck Millipore. Transwell plates (BRANDplates) and insert stripes for the migration assay were purchased from Brand GmbH. Black 96 well plates (96F Nunclon Delta) were purchased from Thermo Scientific. Transparent 96 well assay plates with UV transparent bottom were purchased from Corning Inc. Wound healing experiments were carried out with μ-dish 35 mm culture inserts, which were purchased from Ibidi.
DiFMUP assay for PP2A: In a final reaction volume of 100 μL PP2A (0.05 U final concentration, according to manufacturer’s instructions) were incubated with decreasing concentrations of the inhibitory polyphenols for 30 minutes at 25°C. The assay buffer contained 50 mM TrisCl (pH 7.5), 250 mM NaCl, 0.1 mM EDTA, 1 mM MnCl2, and 2 mM dithiothreitol (DTT). […] Monitoring of the fluorescent dephosphorylation product was monitored and data analyzed as described above.

[7] = biological target: T5, PRL-1 (Homo sapiens, UniProt Q93096); experiment: DiFMUP phosphatase activity assay for PRLs; format: biochemical; conditions: 50 nM PRL-1, 30 min preincubation, 25°C, 24 μM DiFMUP; mean ± SEM (n = 3–5); read-out: IC50 (Ki) PRL-1
T5 construct: His-TEV (cleaved yes); made in house
T5 sequence (Q93096 1-173): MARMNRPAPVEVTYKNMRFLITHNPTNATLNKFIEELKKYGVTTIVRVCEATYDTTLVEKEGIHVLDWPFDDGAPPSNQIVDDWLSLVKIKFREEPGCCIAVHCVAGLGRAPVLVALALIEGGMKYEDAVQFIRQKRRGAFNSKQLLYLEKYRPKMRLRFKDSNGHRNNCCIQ
Protocol: as §1, §2

[8] = biological target: T5, PRL-1; experiment: DiFMUP phosphatase activity assay for PRLs; format: biochemical; conditions: Michaelis-Menten and Lineweaver-Burk analysis, DiFMUP hydrolysis
[9] = biological target: T1, PRL-3; set-up: method as in PMID 20873564; conditions: cited from earlier work
[10] = tested on: Caco-2 cell model; set-up: method as in PMID 23885956; conditions: cited from earlier work
[11] = Michaelis-Menten and Lineweaver-Burk analysis, DiFMUP hydrolysis

T1 sequence (O75365 whole entry): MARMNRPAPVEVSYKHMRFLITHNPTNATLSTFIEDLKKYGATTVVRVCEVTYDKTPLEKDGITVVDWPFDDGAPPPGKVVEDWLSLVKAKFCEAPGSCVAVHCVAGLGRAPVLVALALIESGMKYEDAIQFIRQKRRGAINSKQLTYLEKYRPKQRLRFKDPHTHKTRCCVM

Which results are given for O=C(O[C@@H]1Cc2c(O)cc(O)cc2O[C@@H]1c1cc(O)c(O)c(O)c1)c1cc(O)c(O)c(O)c1 [EGCG (4)]?
increase in PRL-3 inhibition of 3-gallate ester compared to non-gallate (2 vs 1, 4 vs 3) [1]: about two-fold increase; IC50 [1]: 121 ± 5.7 µM; IC50 [2]: 1.35 µM; activity toward PP2A relative to PP1 [3]: ten-fold lower activity

What does the source list for Oc1cc(O)c2c(c1)O[C@H](c1ccc(O)c(O)c1)[C@@H](O)[C@@H]2c1c(O)cc(O)c2c1O[C@H](c1ccc(O)c(O)c1)[C@@H](O)[C@@H]2c1c(O)cc(O)c2c1O[C@H](c1ccc(O)c(O)c1)[C@@H](O)[C@@H]2c1c(O)cc(O)c2c1O[C@H](c1ccc(O)c(O)c1)[C@@H](O)[C@@H]2c1c(O)cc(O)c2c1O[C@H](c1ccc(O)c(O)c1)[C@@H](O)[C@@H]2c1c(O)cc(O)c2c1O[C@H](c1ccc(O)c(O)c1)[C@@H](O)C2 [Hexamer (11)]?
IC50 [1]: 12.5 ± 1.8 µM; IC50 [4]: 10 ± 0.4 µM; PP1 potency of hexamer compared to tetramer 10 [5]: increased only about two-fold; IC50 [5]: 7 ± 2.3 µM; IC50 [6]: 32.5 ± 4.8 µM

For O=C(OC[C@H]1O[C@@H](OC(=O)c2cc(O)c(O)c(O)c2)[C@H](OC(=O)c2cc(O)c(O)c(O)c2)[C@@H](OC(=O)c2cc(O)c(O)c(O)c2)[C@@H]1OC(=O)c1cc(O)c(O)c(O)c1)c1cc(O)c(O)c(O)c1 [PGG, 1,2,3,4,6-penta-O-galloyl-beta-D-glucose, reference compound], which IC50 [2] is on record?
Its IC50 is 0.4 µM.

Which IC50 [1] does the source give for Oc1cc(O)c2c(c1)O[C@H](c1ccc(O)c(O)c1)[C@@H](O)[C@@H]2c1c(O)cc(O)c2c1O[C@H](c1ccc(O)c(O)c1)[C@@H](O)[C@@H]2c1c(O)cc(O)c2c1O[C@H](c1ccc(O)c(O)c1)[C@@H](O)[C@@H]2c1c(O)cc(O)c2c1O[C@H](c1ccc(O)c(O)c1)[C@@H](O)C2 [Tetramer (10)] here?
Its IC50 is 16.3 ± 2.3 µM.

And the “type of inhibition, PRL-3” value [1, 11]?
The value was “noncompetitive”.

What about the IC50 [7] of the same compound?
Its IC50 is 2.2 ± 1.1 µM.

What about the IC50 [4] of the same compound?
The IC50 was 13.4 ± 2.5 µM.

And the IC50 [5]?
Its IC50 is 13.8 ± 2.9 µM.

And the “type of inhibition, PP1” value [5, 11]?
Its value is “noncompetitive”.

And the IC50 [6]?
Its IC50 is 77.9 ± 10.7 µM.

What about the “type of inhibition, PRL-1” value [8] of the same compound?
The value was “noncompetitive”.

Which “PRL-3 phosphatase inhibition in vitro” value [9] does the source give for O=c1c(O)c(-c2ccc(O)c(O)c2)oc2c(O[C@@H]3O[C@H](CO)[C@@H](O)[C@H](O)[C@H]3O)c(O)cc(O)c12 [gossypin] here?
Its value is “moderate phosphatase inhibition”.

For O=c1c(O)c(-c2cc(O)c(O)c(O)c2)oc2cc(O)cc(O)c12 [myricetin], which “PRL-3 phosphatase inhibition in vitro” value [9] is on record?
The value was “moderate phosphatase inhibition”.

Which permeation [10] does the source give for Oc1cc(O)c2c(c1)O[C@H](c1ccc(O)c(O)c1)[C@H](O)[C@H]2c1c(O)cc(O)c2c1O[C@H](c1ccc(O)c(O)c1)[C@H](O)[C@H]2c1c(O)cc(O)c2c1O[C@H](c1ccc(O)c(O)c1)[C@H](O)C2 [procyanidin C1, reference compound] here?
Its permeation is “no permeation was detected”.
